This is an account of results in BindingDB's records for doi:10.1073/pnas.88.17.7491 (Duke University, 1991).

Chain of D(1A) dopamine receptor (P21728 whole entry): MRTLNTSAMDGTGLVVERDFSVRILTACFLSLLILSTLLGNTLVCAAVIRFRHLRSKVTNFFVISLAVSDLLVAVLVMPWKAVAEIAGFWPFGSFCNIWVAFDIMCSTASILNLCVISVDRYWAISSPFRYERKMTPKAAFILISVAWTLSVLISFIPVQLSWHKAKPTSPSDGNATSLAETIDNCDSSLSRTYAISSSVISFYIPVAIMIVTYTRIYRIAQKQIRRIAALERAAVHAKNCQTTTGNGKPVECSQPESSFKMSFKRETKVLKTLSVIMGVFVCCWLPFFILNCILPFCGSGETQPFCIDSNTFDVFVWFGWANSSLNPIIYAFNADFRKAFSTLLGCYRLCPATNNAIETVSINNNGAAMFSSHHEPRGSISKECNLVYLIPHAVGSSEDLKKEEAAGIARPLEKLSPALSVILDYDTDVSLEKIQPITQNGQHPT

This experiment addresses D(1A) dopamine receptor (Homo sapiens, UniProt P21728).
Take `CN1CCN(C2=Nc3cc(F)ccc3Cc3ccccc32)CC1`: affinity was put at a Ki of 75 nM.

With `OCCC1CCN(CCC=C2c3ccc(F)cc3Sc3ccc(C(F)(F)F)cc32)CC1` [CAS_60197-32-2], the affinity corresponds to a Ki of 0.65 nM.

Turning to `O=C(O)c1ccccc1C(=O)Nc1cccc2ccccc12` [NPA,(+)], the affinity corresponds to a Ki of 1540 nM.
